Where two headings read alike, the source gives them in different places.
Tests used:
p110α = p110α (Homo sapiens, UniProt P42336); assay: Biochemical IC50 assay
p110β = p110β (Homo sapiens, UniProt P42338); assay: Biochemical IC50 assay
[1] = male CD1 mice; cited from earlier work
Caco2 = details: 10 μM, absence of a P‐gp inhibitor; cited from earlier work
P‐gp [2] = details: read-out: P‐gp mediated transport inhibition IC50, cited from earlier work
[3] = female Beagle dogs; cited from earlier work
[4] = male humans; cited from earlier work
BCRP [5] = details: read-out: BCRP mediated transport inhibition IC50; for topotecan; cited from earlier work
P‐gp [6] = details: cited from earlier work
[7] = all species investigated including mouse, rat, dog and monkey; cited from earlier work
BCRP [8] = details: cited from earlier work
[9] = male Wistar rats; cited from earlier work

Sequence of p110β (P42338 109-1070): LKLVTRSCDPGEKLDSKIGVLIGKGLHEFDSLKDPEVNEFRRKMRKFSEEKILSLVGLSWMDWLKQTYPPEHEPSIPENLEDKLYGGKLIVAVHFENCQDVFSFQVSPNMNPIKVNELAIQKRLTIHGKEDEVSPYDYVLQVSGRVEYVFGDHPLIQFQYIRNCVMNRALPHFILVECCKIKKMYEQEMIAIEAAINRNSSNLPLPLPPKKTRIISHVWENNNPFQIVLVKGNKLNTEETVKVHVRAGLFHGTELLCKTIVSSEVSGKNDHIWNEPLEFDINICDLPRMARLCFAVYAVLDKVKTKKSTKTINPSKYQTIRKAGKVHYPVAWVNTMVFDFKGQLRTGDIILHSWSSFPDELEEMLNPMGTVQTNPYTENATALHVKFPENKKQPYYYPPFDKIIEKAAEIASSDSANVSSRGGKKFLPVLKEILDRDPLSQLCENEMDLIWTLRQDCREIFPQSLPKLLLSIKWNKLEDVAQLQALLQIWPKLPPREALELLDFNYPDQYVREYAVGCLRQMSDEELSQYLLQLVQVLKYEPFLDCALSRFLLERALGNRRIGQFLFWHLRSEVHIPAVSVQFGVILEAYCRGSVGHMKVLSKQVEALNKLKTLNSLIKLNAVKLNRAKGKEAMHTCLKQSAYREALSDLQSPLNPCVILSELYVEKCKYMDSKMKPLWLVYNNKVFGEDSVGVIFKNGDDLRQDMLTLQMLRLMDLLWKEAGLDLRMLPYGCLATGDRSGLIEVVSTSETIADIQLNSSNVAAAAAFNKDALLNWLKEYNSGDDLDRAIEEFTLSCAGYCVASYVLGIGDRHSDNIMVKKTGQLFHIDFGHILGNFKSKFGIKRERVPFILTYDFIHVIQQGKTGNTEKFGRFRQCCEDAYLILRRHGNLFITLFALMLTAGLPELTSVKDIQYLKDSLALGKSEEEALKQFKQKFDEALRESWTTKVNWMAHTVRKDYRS
Sequence of p110α (P42336 109-1068): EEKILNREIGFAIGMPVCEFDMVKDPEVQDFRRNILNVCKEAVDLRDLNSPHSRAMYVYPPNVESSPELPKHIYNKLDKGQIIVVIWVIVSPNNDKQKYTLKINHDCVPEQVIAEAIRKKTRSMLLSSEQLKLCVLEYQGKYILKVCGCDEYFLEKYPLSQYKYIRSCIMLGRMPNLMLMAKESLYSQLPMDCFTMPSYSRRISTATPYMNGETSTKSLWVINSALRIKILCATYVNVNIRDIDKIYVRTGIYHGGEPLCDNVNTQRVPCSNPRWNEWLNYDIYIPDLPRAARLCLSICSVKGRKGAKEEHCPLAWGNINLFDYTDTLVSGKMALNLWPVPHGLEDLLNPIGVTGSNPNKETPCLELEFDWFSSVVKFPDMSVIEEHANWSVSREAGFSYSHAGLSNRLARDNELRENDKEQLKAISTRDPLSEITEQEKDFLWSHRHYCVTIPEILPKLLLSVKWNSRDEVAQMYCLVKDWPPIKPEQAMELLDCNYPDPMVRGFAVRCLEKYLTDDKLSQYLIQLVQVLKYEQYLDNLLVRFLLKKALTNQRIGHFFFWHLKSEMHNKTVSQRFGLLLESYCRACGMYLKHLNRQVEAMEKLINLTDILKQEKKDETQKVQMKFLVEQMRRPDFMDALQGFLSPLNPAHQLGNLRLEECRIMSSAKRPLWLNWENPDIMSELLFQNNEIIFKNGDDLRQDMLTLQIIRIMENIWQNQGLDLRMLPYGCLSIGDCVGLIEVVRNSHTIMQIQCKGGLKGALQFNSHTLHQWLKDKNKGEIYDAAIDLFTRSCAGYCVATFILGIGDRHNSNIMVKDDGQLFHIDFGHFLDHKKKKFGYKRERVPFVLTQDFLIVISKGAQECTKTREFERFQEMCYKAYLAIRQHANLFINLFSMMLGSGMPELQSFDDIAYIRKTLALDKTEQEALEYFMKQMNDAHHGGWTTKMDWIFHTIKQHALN

Row | Compound | IC50 (p110α) [nM] | IC50 (p110β) [nM] | also measured
1 | COc1c(OCc2ccccc2)ccc2c1N=C(NC(=O)c1cccnc1)N1CCN=C21 [Compd 30, N ‐[8‐(Benzyloxy)‐7‐methoxy‐2,3‐dihydroimidazo[1,2‐c]quinazolin‐5‐yl]nicotinamide] | 6.1 | 1510 | –
2 | COc1c(O)ccc2c1N=C(NC(=O)c1cccnc1)N1CCN=C21 [Compd 31, N ‐(8‐Hydroxy‐7‐methoxy‐2,3‐dihydroimidazo[1,2‐c]quinazolin‐5‐yl)nicotinamide] | 8.7 | 210 | –
3 | CCOc1ccc2c(c1OC)N=C(NC(=O)c1cccnc1)N1CCN=C21 [Compd 32 b, N ‐(8‐Ethoxy‐7‐methoxy‐2,3‐dihydroimidazo[1,2‐c]quinazolin‐5‐yl)nicotinamide] | 3.6 | 76.1 | –
4 | COc1c(OCC(C)C)ccc2c1N=C(NC(=O)c1cccnc1)N1CCN=C21 [Compd 32 c, N ‐(8‐Isobutoxy‐7‐methoxy‐2,3‐dihydroimidazo[1,2‐c]quinazolin‐5‐yl)nicotinamide] | 8 | 226 | –
5 | COc1c(OCCCN(C)C)ccc2c1N=C(NC(=O)c1cccnc1)N1CCN=C21 [Compd 32 e, N ‐{8‐[3‐(Dimethylamino)propoxy]‐7‐methoxy‐2,3‐dihydroimidazo[1,2‐c]quinazolin‐5‐yl}nicotinamide] | 3.6 | 18 | –
6 | COc1c(OCCCN2CCCCC2)ccc2c1N=C(NC(=O)c1cccnc1)N1CCN=C21 [Compd 32 f, N ‐{7‐Methoxy‐8‐[3‐(piperidin‐1‐yl)propoxy]‐2,3‐dihydroimidazo[1,2‐c]quinazolin‐5‐yl}nicotinamide] | 2.9 | 18.3 | –
7 | COc1c(OCCCN2CCOCC2)ccc2c1N=C(NC(=O)c1cccnc1)N1CCN=C21 [Compd 32 g, N ‐{7‐Methoxy‐8‐[3‐(morpholin‐4‐yl)propoxy]‐2,3‐dihydroimidazo[1,2‐c]quinazolin‐5‐yl}nicotinamide] | 1.8 | 20.8 | –
8 | COc1c(OCCN2CCOCC2)ccc2c1N=C(NC(=O)c1cccnc1)N1CCN=C21 [Compd 32 h, N ‐{7‐Methoxy‐8‐[2‐(morpholin‐4‐yl)ethoxy]‐2,3‐dihydroimidazo[1,2‐c]quinazolin‐5‐yl}nicotinamide] | 0.9 | 11.2 | –
9 | COc1c(OCCCCN2CCOCC2)ccc2c1N=C(NC(=O)c1cccnc1)N1CCN=C21 [Compd 32 i, N ‐{7‐Methoxy‐8‐[4‐(morpholin‐4‐yl)butoxy]‐2,3‐dihydroimidazo[1,2‐c]quinazolin‐5‐yl}nicotinamide] | – | 88.1 | –
10 | O=C(NC1=Nc2c(ccc(OCCCN3CCOCC3)c2O)C2=NCCN12)c1cccnc1 [Compd 33, N ‐{7‐Hydroxy‐8‐[3‐(morpholin‐4‐yl)propoxy]‐2,3‐dihydroimidazo[1,2‐c]quinazolin‐5‐yl}nicotinamide] | – | 55.6 | –
11 | CCCOc1c(OCCCN2CCOCC2)ccc2c1N=C(NC(=O)c1cccnc1)N1CCN=C21 [Compd 34 a, N ‐{8‐[3‐(Morpholin‐4‐yl)propoxy]‐7‐propoxy‐2,3‐dihydroimidazo[1,2‐c]quinazolin‐5‐yl}nicotinamide] | – | 7.8 | –
12 | C=CCOc1c(OCCCN2CCOCC2)ccc2c1N=C(NC(=O)c1cccnc1)N1CCN=C21 [Compd 34 b, N ‐{7‐(Allyloxy)‐8‐[3‐(morpholin‐4‐yl)propoxy]‐2,3‐dihydroimidazo[1,2‐c]quinazolin‐5‐yl}nicotinamide] | – | 22.6 | –
13 | CC(C)COc1c(OCCCN2CCOCC2)ccc2c1N=C(NC(=O)c1cccnc1)N1CCN=C21 [Compd 34 c, N ‐{7‐Isobutoxy‐8‐[3‐(morpholin‐4‐yl)propoxy]‐2,3‐dihydroimidazo[1,2‐c]quinazolin‐5‐yl}nicotinamide] | 10.2 | 29.1 | –
14 | O=C(NC1=Nc2c(ccc(OCCCN3CCOCC3)c2OCC2CCCCC2)C2=NCCN12)c1cccnc1 [Compd 34 d, N ‐{7‐(Cyclohexylmethoxy)‐8‐[3‐(morpholin‐4‐yl)propoxy]‐2,3‐dihydroimidazo[1,2‐c]quinazolin‐5‐yl}nicotinamide] | – | 88.5 | –
15 | O=C(NC1=Nc2c(ccc(OCCCN3CCOCC3)c2OCC2CCOCC2)C2=NCCN12)c1cccnc1 [Compd 34 e, N ‐{8‐[3‐(Morpholin‐4‐yl)propoxy]‐7‐[(tetrahydro‐2H‐pyran‐4‐yl)methoxy]‐2,3‐dihydroimidazo[1,2‐c]quinazolin‐5‐yl}nicotinamide] | 2.1 | 18.2 | –
16 | O=C(NC1=Nc2c(ccc(OCCCN3CCOCC3)c2OCc2ccncc2)C2=NCCN12)c1cccnc1 [Compd 34 f, N ‐{8‐[3‐(Morpholin‐4‐yl)propoxy]‐7‐[(pyridin‐4‐yl)methoxy]‐2,3‐dihydroimidazo[1,2‐c]quinazolin‐5‐yl}nicotinamide] | – | 19.3 | –
17 | COc1c(OCCCN2CCOCC2)ccc2c1N=C(NC(=O)c1ccc3c(c1)OCO3)N1CCN=C21 [Compd 39 a, N ‐{7‐Methoxy‐8‐[3‐(morpholin‐4‐yl)propoxy]‐2,3‐dihydroimidazo[1,2‐c]quinazolin‐5‐yl}‐1,3‐benzodioxole‐5‐carboxamide] | 20.9 | 668 | –
18 | COc1c(OCCCN2CCOCC2)ccc2c1N=C(NC(=O)c1sc(C)nc1C)N1CCN=C21 [Compd 39 b, N ‐{7‐Methoxy‐8‐[3‐(morpholin‐4‐yl)propoxy]‐2,3‐dihydroimidazo[1,2‐c]quinazolin‐5‐yl}‐2,4‐dimethyl‐1,3‐thiazole‐5‐carboxamide] | 1.6 | 7.8 | –
19 | COc1c(OCCCN2CCOCC2)ccc2c1N=C(NC(=O)c1ccncc1)N1CCN=C21 [Compd 39 c, N ‐{7‐Methoxy‐8‐[3‐(morpholin‐4‐yl)propoxy]‐2,3‐dihydroimidazo[1,2‐c]quinazolin‐5‐yl}isonicotinamide] | – | 63.7 | –
20 | COc1c(OCCCN2CCOCC2)ccc2c1N=C(NC(=O)c1ccnc(N)c1)N1CCN=C21 [Compd 39 d, 2‐Amino‐N‐{7‐methoxy‐8‐[3‐(morpholin‐4‐yl)propoxy]‐2,3‐dihydroimidazo[1,2‐c]quinazolin‐5‐yl}isonicotinamide] | 6.2 | 16.6 | –
21 | COc1c(OCCCN2CCOCC2)ccc2c1N=C(NC(=O)c1ccc(N)nc1)N1CCN=C21 [Compd 39 e, 6‐Amino‐N‐{7‐methoxy‐8‐[3‐(morpholin‐4‐yl)propoxy]‐2,3‐dihydroimidazo[1,2‐c]quinazolin‐5‐yl}nicotinamide] | 0.6 | 7.9 | –
22 | COc1c(OCCCN2CCOCC2)ccc2c1N=C(NC(=O)c1ccc(N(C)C)nc1)N1CCN=C21 [Compd 39 f, 6‐(Dimethylamino)‐N‐{7‐methoxy‐8‐[3‐(morpholin‐4‐yl)propoxy]‐2,3‐dihydroimidazo[1,2‐c]quinazolin‐5‐yl}nicotinamide] | 2.9 | 58.7 | –
23 | COc1c(OCCCN2CCOCC2)ccc2c1N=C(NC(=O)c1cnccn1)N1CCN=C21 [Compd 39 g, N ‐{7‐Methoxy‐8‐[3‐(morpholin‐4‐yl)propoxy]‐2,3‐dihydroimidazo[1,2‐c]quinazolin‐5‐yl}pyrazine‐2‐carboxamide] | – | 351 | –
24 | COc1c(OCCCN2CCOCC2)ccc2c1N=C(NC(=O)c1cncnc1)N1CCN=C21 [Compd 39 h, N ‐{7‐Methoxy‐8‐[3‐(morpholin‐4‐yl)propoxy]‐2,3‐dihydroimidazo[1,2‐c]quinazolin‐5‐yl}pyrimidine‐5‐carboxamide] | 132 | 286 | –
25 | COc1c(OCCCN2CCOCC2)ccc2c1N=C(NC(=O)c1cnc(N)nc1)N1CCN=C21 [Compd 39 i, 2‐Amino‐N‐{7‐methoxy‐8‐[3‐(morpholin‐4‐yl)propoxy]‐2,3‐dihydroimidazo[1,2‐c]quinazolin‐5‐yl}pyrimidine‐5‐carboxamide] | – | – | plasma‐free fraction [1]: 27.6%; Caco2 P app apical (A) to basal (B) (Caco2): 56.9 ± 2.91 nm/s; IC50 (P‐gp [2]; for digoxin): 7 µM; IC50 (P‐gp [2]; for dipyridamole): 7.6 µM; plasma‐free fraction [3]: 42.4%; plasma‐free fraction [4]: 15.8%; IC50 (BCRP [5]): 11.5 µM; substrate of efflux transporter P‐gp (P‐gp [6]): substrate; volume of distribution (V ss) [7]: 7 to 32 L/kg; substrate of efflux transporter BCRP (BCRP [8]): substrate; plasma‐free fraction [9]: 42.5%
26 | COc1c(OCCCN2CCOCC2)ccc2c1N=C(NC(=O)c1cnc(N)nc1C)N1CCN=C21 [Compd 39 j, 2‐Amino‐N‐{7‐methoxy‐8‐[3‐(morpholin‐4‐yl)propoxy]‐2,3‐dihydroimidazo[1,2‐c]quinazolin‐5‐yl}‐4‐methylpyrimidine‐5‐carboxamide] | 0.4 | 1 | –

From paper PMC5094563 (Chemmedchem, 2016)
